What was measured:
Sin3-Ume6 = target: T1, Sin3-Ume6 (Saccharomyces cerevisiae, UniProt P22579); assay: GPCA binary PPI inhibition in HEK293T cells, Sin3-Ume6; format: cell-based, human HEK293T cells
T1 construct: ORFs corresponding to full-length subunits of the Rpd3L HDAC complex were PCR-amplified from yeast genomic DNA; expressed in transfected cells; host or cells: HEK293T
Protocol: GPCA (N1-N2 version) was implemented as reported in [Choi et al 2019]. HEK293T cells were seeded at 6×10^4 cells per well in 96-well, flat-bottom, cell culture microplates (Greiner Bio-One, #655083), and cultured in Dulbecco's modified Eagle's medium (DMEM) supplemented with 10% fetal calf serum at 37° C. and 5% CO2. Twenty-four hours later, cells were transfected with 100 ng of each GPCA plasmid (GPCA-N1 and GPCA-N2) using linear polyethylenimine (PEI) to co-express the protein pairs fused with complementary luciferase fragments, Luc1 and Luc2. The DNA/PEI ratio used for transfection was 1:3 (mass:mass). […] Luminescence was measured by auto-injecting 50 μL Renilla luciferase substrate (Renilla Luciferase Assay system, catalog No. E2820, Promega) per well and integrating light output for 4 s using a TriStar luminometer (Berthold).
The ability of compounds to inhibit binary PPIs in the Sin3/Rpd3L HDAC complex was tested by GPCA in a high-throughput screening format. […] The luminescence signal for each PPI was measured by averaging the different DMSO replicates, and calculating the standard deviation of DMSO values for each interaction. […] For each interaction, a particular compound was scored as a PPI inhibitor when it decreased its luminescence signal by at least three standard deviations compared to the corresponding averaged DMSO value. […]

[1] = target: T2, PAH2 domain of mouse M. musculus SIN3B (Mus musculus, UniProt Q62141, C241A); assay: Ligand-detected NMR, mouse SIN3B PAH2; format: binding
T2 construct: M. musculus SIN3B PAH2 C241A (residues 148-252) expressing plasmid; GST (cleaved yes); made in house; host or cells: E. coli BL21 (DE3), minimal medium with 15N-ammonium chloride and 13C-glucose
T2 sequence (Q62141 148-252 C241A): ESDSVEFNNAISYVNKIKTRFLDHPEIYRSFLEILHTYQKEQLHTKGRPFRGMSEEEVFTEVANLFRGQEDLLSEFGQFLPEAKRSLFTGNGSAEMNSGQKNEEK
Protocol: Expression of mouse ^13C/^15N SIN3B PAH2: the same M. musculus SIN3B PAH2 C241A (residues 148-252) expressing plasmid as reported by [Kumar et al 2011] was used here. The construct was overexpressed in E. coli BL21 (DE3) in 1 L of minimum medium supplemented with 1 g 15N-ammonium chloride (Cambridge Isotope Laboratories) and 2 g 13C-glucose (Cambridge Isotope Laboratories). Cells were grown at 37° C. to an OD of 0.8, cooled to 17° C., induced with 500 μM isopropyl-1-thio-D-galactopyranoside, incubated overnight at 17° C., collected by centrifugation, and stored at −80° C. 13C/15N-double labeled protein was purified as for other GST-fused constructs. The GST tag was cleaved as described above.
Ligand-detected NMR experiments: all results were acquired using a 3 mm tube at 25° C. on a Bruker 600 MHz Avance II system equipped with a CPPTCI cryoprobe (Bruker BioSpin Corp.). In all experiments, the concentration of E6R was fixed at 300 μM (from a stock of 25 mM in deuterated DMSO) and the concentration of the protein at 10 μM. The volume of deuterated DMSO was kept constant (1.5%) in all tested samples. […] Proton spectra used to measure DLB and chemical shift perturbations in the absence and presence of the proteins were recorded with 16 scans using a recycle delay of 3 s. […]

[2] = test system: yeast S. cerevisiae Sin3 PAH1 and PAH3 domains; assay: Ligand-detected NMR, yeast Sin3 PAH1 and PAH3; format: binding; settings: FIG. 27
Protocol: Ligand-detected NMR experiments: all results were acquired using a 3 mm tube at 25° C. on a Bruker 600 MHz Avance II system equipped with a CPPTCI cryoprobe (Bruker BioSpin Corp.). In all experiments, the concentration of E6R was fixed at 300 μM (from a stock of 25 mM in deuterated DMSO) and the concentration of the protein at 10 μM. The volume of deuterated DMSO was kept constant (1.5%) in all tested samples. Right before the experiments, the compound and protein were diluted in 1×PBS containing 0.1% deuterated dithiothreitol (DTT) to a total volume of 200 μL. Samples were diluted by 5% with D2O for magnetic field lock. Spectra were acquired for ligand only, protein only, and ligand+protein. […] STD experiments [Mayer et al 2001] were acquired with 160 scans, with protein irradiation applied for 3 s at 0 ppm and −20 ppm for the on and off resonance experiments, respectively. On and off resonance spectra were collected and stored separately. One-dimensional CPMG-R2 edited experiments [Hajduk et al 1997] were collected for samples with and without proteins using seven CPMG delays (0, 25, 50, 100, 300, 500, and 800 ms) with four scans per delay. Proton spectra used to measure DLB and chemical shift perturbations in the absence and presence of the proteins were recorded with 16 scans using a recycle delay of 3 s. […]

[3] = test system: HDAC class I and II enzymes (live yeast cells, HeLa nuclear extract, semi-purified human HDAC1); assay: HDAC-Glo I/II luminescence HDAC enzymatic assay; format: biochemical, S. cerevisiae; human; settings: three HDAC sources
Protocol: The HDAC-Glo I/II screening system (Promega, cat #G6430) was adapted to measure the effect of compounds on the enzymatic activity of human and yeast HDAC sources. […] FLAG-HDAC1 was eluted from anti-FLAG beads before running the assay, using a FLAG peptide. Nuclear extracts from human HeLa cells were provided in the assay kit. HDAC enzymatic activity was measured following the manufacturer's protocol. Briefly, linear ranges of the assay were determined by measuring luminescence signals, in a serial dilution manner, for semi-purified human HDAC1, or live yeast cells, diluted in the HDAC-Glo I/II buffer. For HeLa nuclear extracts, the manufacturer provided this information in the assay kit. For the different HDAC sources, dilution factors corresponding to signals in the linear ranges were used. To test the effect of compounds (three or four replicates) on HDAC enzymatic activity, equal volumes of HDAC sources (5 μL), and inhibitors (5 μL) were added to the different wells of a white, flat bottom 384-well plate. The plate was then briefly centrifuged with a tabletop centrifuge, and gently shaken for 1 min at 700 rpm. The plate was tightly sealed to prevent evaporation, and incubated at room temperature for 1 h. […] Luminescence signals were measured using a TriStar luminometer from Berthold Technologies, with 1 s integration time per sample. […]

T1 sequence (P22579 whole entry): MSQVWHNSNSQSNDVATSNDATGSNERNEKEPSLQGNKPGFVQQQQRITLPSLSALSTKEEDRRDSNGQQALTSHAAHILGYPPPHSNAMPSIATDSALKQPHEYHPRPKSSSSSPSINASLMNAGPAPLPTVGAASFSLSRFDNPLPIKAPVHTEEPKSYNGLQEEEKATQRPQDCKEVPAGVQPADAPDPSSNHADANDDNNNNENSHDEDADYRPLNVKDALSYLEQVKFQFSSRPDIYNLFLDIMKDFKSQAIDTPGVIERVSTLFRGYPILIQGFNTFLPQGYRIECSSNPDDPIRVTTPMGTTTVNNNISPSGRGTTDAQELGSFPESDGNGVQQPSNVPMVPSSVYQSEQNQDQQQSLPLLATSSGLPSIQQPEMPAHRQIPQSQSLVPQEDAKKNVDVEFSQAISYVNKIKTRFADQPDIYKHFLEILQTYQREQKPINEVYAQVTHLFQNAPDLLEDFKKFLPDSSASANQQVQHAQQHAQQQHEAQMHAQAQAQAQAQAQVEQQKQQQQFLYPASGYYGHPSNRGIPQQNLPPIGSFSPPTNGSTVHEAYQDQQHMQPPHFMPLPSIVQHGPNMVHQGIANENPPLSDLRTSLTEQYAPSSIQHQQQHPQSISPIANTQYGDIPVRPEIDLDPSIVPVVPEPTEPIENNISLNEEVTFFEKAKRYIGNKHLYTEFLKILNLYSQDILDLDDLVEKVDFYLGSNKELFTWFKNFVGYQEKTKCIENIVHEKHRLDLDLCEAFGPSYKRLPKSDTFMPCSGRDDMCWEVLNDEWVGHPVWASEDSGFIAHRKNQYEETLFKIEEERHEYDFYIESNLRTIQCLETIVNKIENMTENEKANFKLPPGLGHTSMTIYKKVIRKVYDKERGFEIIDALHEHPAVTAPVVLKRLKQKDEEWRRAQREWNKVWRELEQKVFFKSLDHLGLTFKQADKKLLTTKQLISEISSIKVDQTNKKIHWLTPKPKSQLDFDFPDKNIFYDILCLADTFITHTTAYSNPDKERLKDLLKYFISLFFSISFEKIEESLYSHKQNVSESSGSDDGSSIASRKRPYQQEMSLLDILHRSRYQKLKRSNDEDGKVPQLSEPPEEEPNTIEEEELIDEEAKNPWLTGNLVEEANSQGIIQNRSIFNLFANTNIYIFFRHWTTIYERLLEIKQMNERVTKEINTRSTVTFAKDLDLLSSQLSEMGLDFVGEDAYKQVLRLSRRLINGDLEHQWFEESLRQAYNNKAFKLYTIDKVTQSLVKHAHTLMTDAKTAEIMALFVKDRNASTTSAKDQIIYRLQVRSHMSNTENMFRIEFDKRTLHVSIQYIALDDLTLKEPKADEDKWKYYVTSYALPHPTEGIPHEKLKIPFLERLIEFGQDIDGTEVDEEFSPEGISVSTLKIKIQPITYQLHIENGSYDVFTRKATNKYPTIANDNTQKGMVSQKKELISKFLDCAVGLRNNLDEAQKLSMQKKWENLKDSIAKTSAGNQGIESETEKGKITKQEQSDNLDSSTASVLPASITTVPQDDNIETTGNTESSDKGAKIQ

Compound: CC(NC(=O)c1c(O)n2ccccc2nc1=O)c1ccccc1 (racemic) [E6]
- inhibition of Sin3-Ume6 PPI (fold change over DMSO) (Sin3-Ume6; 10 μM, 1 h): ~2.5 fold
- inhibition of Sin3-Ume6 PPI (Sin3-Ume6; GPCA): selectively inhibit

Compound: C[C@@H](NC(=O)c1c(O)n2ccccc2nc1=O)c1ccccc1 [E6R, 4-hydroxy-2-oxo-N—((R)-1-phenylethyl)-3,4-dihydro-2H-pyrido[, 2-a]pyrimidine-3-carboxamide]
- binding to mouse SIN3B PAH2 by NMR [1]: virtually identical to those of yeast Sin3 PAH2
- binding to other PAH domains of yeast Sin3 by NMR [2]: can bind

Compound: CC(/C=C/C(=O)NO)=C\[C@@H](C)C(=O)c1ccc(N(C)C)cc1 [TSA, trichostatin A]
- inhibition of HDAC enzymatic activity [3]: systematically reduced HDAC activity
